Reference: patent US11813306B2, “Cyclic tetramer compounds as proprotein convertase subtilisin/kexin type 9 (PCSK9) inhibitors for the treatment of metabolic disorders” (NOVARTIS AG, priority 2018, dated 2023)
Like-named read-outs stand apart in the source and are kept apart here.

How the values were obtained:
[1] = DCM
human PCSK9 = human PCSK9 (Homo sapiens, UniProt Q8NBP7); assay: PCSK9 ligand binding assay (TR-FRET): interference with binding of human PCSK9 to human LDLR; settings: for IC50: Human PCSK9 Alexa Fluor 647 / Human LDLR extracellular domain-Europium Kryptate; for Max % inhibition: efficacy (Amax), 100% = 1 uM unlabeled human PCSK9, 0% = DMSO
human PCSK9, sequence (Q8NBP7 153-692): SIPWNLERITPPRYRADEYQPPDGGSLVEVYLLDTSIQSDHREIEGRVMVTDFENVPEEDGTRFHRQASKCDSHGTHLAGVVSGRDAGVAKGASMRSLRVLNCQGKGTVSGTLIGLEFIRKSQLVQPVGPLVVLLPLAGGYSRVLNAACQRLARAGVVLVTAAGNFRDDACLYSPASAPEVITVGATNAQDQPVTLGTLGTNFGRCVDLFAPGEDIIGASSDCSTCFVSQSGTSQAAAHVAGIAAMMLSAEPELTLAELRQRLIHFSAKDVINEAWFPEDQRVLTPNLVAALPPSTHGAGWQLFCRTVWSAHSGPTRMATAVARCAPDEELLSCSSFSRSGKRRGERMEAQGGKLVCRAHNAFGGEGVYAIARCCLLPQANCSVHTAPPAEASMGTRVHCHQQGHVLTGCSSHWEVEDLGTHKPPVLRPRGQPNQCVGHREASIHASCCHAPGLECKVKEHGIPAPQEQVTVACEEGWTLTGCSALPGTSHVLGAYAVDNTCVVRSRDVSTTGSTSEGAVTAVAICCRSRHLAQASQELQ
human PCSK9, sequence (Q8NBP7 31-152 partner limits assumed): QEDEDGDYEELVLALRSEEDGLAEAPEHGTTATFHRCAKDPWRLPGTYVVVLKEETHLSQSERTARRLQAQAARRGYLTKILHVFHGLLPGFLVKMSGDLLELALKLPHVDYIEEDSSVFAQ
Procedure, shortened: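 Read-out was TR-FRET ratio (665 nm over 615 nm, 330 nm excitation) between Alexa Fluor 647-human PCSK9 (16 nM added) and Europium Kryptate-human LDLR ectodomain (4 nM added). Compound and PCSK9 were mixed 30 min before LDLR, then incubated 2 h. Inhibition was normalised to DMSO and unlabelled-PCSK9 controls, giving IC50 and Amax.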

Row | Structure (SMILES) | IC50 (human PCSK9) | Max % inhibition (human PCSK9) | ring closure, yield of all isomers ([1]; from C[C@@H](C(=O)N[C@@H](CO)C(=O)N[C@@]1(Cc2ccc(Cl)cc2)CCCNC1)N(Cc1ccc(Cl)cc1Oc1ccc(-c2cnc(CN(C)C)n2C)cc1)C(=O)N[C@@H](Cc1ccccc1)C(=O)O, amide bond, HATU/HOAt/2,6-lutidine, 1.0 mM, 25.0 °C, 2.5 h) | ring closure, yield of all isomers ([1]; from COC[C@H](NC(=O)[C@H](C)N)C(=O)N[C@@]1(Cc2ccc(Cl)cc2)CCCN(C(=O)[C@@H](CC=O)Cc2ccccc2)C1, amine bond, NaBH(OAc)3/AcOH, 10.0 mM, 25.0 °C, 2.5 h, 4 steps) | ring closure, yield of all isomers ([1]; from C[C@H](NCc1ccc(Cl)cc1Oc1ccc(-c2cnc(CN3CCCC3)n2C)cc1)C(=O)N[C@@H](COC(C)(C)C)C(=O)N(C)[C@H](Cc1ccc(Cl)cc1)CN(C)C(=O)[C@@H](CC(=O)O)[C@H]1CCc2ccccc21, amide bond, HATU, 1.0 mM, 40.0 °C, 29.0 h, 2 steps) | ring closure, yield of all isomers ([1]; from COC[C@H](NC(=O)[C@H](C)NCc1ccc(Cl)cc1Oc1ccc(-c2cnc(CN3CCCC3)n2C)cc1)C(=O)N[C@@]1(Cc2ccc(Cl)cc2)CCCN(C(=O)[C@@H](CC(=O)O)[C@H]2CCc3ccccc32)C1, amide bond, HATU/HOAt/2,6-lutidine, 1.04 mM, 40.0 °C, 17.0 h) | ring closure, yield of all isomers ([1]; from COC[C@H](NC(=O)[C@H](C)N(Cc1ccc(Cl)cc1Oc1ccc(-c2cnc(CN(C)C)n2C)cc1)C(=O)O[C@@H](Cc1ccccc1)C(=O)O)C(=O)N[C@@]1(Cc2ccc(Cl)cc2)CCCNC1, amide bond, HATU/HOAt, 2,6-lutidine, 0.95 mM, 25.0 °C, 1.5 h)
1 | C[C@H]1C(=O)N[C@@H](CO)C(=O)N[C@@]2(Cc3ccc(Cl)cc3)CCCN(C2)C(=O)[C@H](Cc2ccccc2)NC(=O)N1Cc1ccc(Cl)cc1Oc1ccc(-c2cnc(CN(C)C)n2C)cc1.Cl [Compound 60, (3S,7S,10S,13R)-3-benzyl-6-(4-chloro-2-(4-(2-((dimethylamino)methyl)-1-methyl-1H-imidazol-5-yl)phenoxy)benzyl)-13-(4-chlorobenzyl)-10-(hydroxymethyl)-7-methyl-1,4,6,9,12-pentaaza-bicyclo[11.3.1]-heptadecane-2,5,8,11-tetraone hydrochloride] | 0.476 nM | 106.6% | 55% | – | – | – | –
2 | C[C@H]1C(=O)N[C@@H](CO)C(=O)N(C)[C@H](Cc2ccc(Cl)cc2)CN(C)C(=O)[C@H]([C@H]2CCc3ccccc32)CC(=O)N1Cc1ccc(Cl)cc1Oc1ccc(-c2cnc(CN3CCCC3)n2C)cc1.Cl [Compound 86, (2S,5S,8R,12S)-1-(4-chloro-2-(4-(1-methyl-2-(pyrrolidin-1-ylmethyl)-1H-imidazol-5-yl)phenoxy)-benzyl)-8-(4-chlorobenzyl)-12-((R)-2,3-dihydro-1H-inden-1-yl)-5-(hydroxymethyl)-2,7,10-trimethyl-1,4,7,10-tetraazacyclotetradecane-3,6,11,14-tetraone hydrochloride] | 0.941 nM | 99.4% | – | – | 45% | – | –
3 | COC[C@@H]1NC(=O)[C@H](C)N(Cc2ccc(Cl)cc2Oc2ccc(-c3cnc(CN4CCCC4)n3C)cc2)C(=O)C[C@@H]([C@H]2CCc3ccccc32)C(=O)N2CCC[C@@](Cc3ccc(Cl)cc3)(C2)NC1=O.O=C(O)C(F)(F)F [Compound 96, (3S,7S,10S,13R)-6-(4-chloro-2-(4-(1-methyl-2-(pyrrolidin-1-ylmethyl)-1H-imidazol-5-yl)phenoxy)benzyl)-13-(4-chlorobenzyl)-3-((R)-2,3-dihydro-1H-inden-1-yl)-10-(methoxymethyl)-7-methyl-1,6,9,12-tetraazabicyclo[11.3.1]heptadecane-2,5,8,11-tetraone trifluoroacetate] | 2.21 nM | 96.3% | – | – | – | 46% | –

Now from value to molecule, other results behind:

Row | IC50 (human PCSK9) | Max % inhibition (human PCSK9) | Structure (SMILES) | ring closure, yield of all isomers ([1]; from C[C@@H](C(=O)N[C@@H](CO)C(=O)N[C@@]1(Cc2ccc(Cl)cc2)CCCNC1)N(Cc1ccc(Cl)cc1Oc1ccc(-c2cnc(CN(C)C)n2C)cc1)C(=O)N[C@@H](Cc1ccccc1)C(=O)O, amide bond, HATU/HOAt/2,6-lutidine, 1.0 mM, 25.0 °C, 2.5 h) | ring closure, yield of all isomers ([1]; from COC[C@H](NC(=O)[C@H](C)N)C(=O)N[C@@]1(Cc2ccc(Cl)cc2)CCCN(C(=O)[C@@H](CC=O)Cc2ccccc2)C1, amine bond, NaBH(OAc)3/AcOH, 10.0 mM, 25.0 °C, 2.5 h, 4 steps) | ring closure, yield of all isomers ([1]; from C[C@H](NCc1ccc(Cl)cc1Oc1ccc(-c2cnc(CN3CCCC3)n2C)cc1)C(=O)N[C@@H](COC(C)(C)C)C(=O)N(C)[C@H](Cc1ccc(Cl)cc1)CN(C)C(=O)[C@@H](CC(=O)O)[C@H]1CCc2ccccc21, amide bond, HATU, 1.0 mM, 40.0 °C, 29.0 h, 2 steps) | ring closure, yield of all isomers ([1]; from COC[C@H](NC(=O)[C@H](C)NCc1ccc(Cl)cc1Oc1ccc(-c2cnc(CN3CCCC3)n2C)cc1)C(=O)N[C@@]1(Cc2ccc(Cl)cc2)CCCN(C(=O)[C@@H](CC(=O)O)[C@H]2CCc3ccccc32)C1, amide bond, HATU/HOAt/2,6-lutidine, 1.04 mM, 40.0 °C, 17.0 h) | ring closure, yield of all isomers ([1]; from COC[C@H](NC(=O)[C@H](C)N(Cc1ccc(Cl)cc1Oc1ccc(-c2cnc(CN(C)C)n2C)cc1)C(=O)O[C@@H](Cc1ccccc1)C(=O)O)C(=O)N[C@@]1(Cc2ccc(Cl)cc2)CCCNC1, amide bond, HATU/HOAt, 2,6-lutidine, 0.95 mM, 25.0 °C, 1.5 h)
4 | 61.2 nM | 102.4% | COC[C@@H]1NC(=O)[C@H](C)N(Cc2ccc(Cl)cc2Oc2ccc(-c3cnc(CN(C)C)n3C)cc2)CC[C@@H](Cc2ccccc2)C(=O)N2CCC[C@@](Cc3ccc(Cl)cc3)(C2)NC1=O.O=C(O)C(F)(F)F [Compound 120, (3R,7S,10S,13R)-3-benzyl-6-(4-chloro-2-(4-(2-((dimethylamino)methyl)-1-methyl-1H-imidazol-5-yl)phenoxy)benzyl)-13-(4-chlorobenzyl)-10-(methoxymethyl)-7-methyl-1,6,9,12-tetraazabicyclo[11.3.1]heptadecane-2,8,11-trione trifluoroacetate] | – | 0.6% | – | – | –
5 | 9.21 nM | 100.8% | COC[C@@H]1NC(=O)[C@H](C)N(Cc2ccc(Cl)cc2Oc2ccc(-c3cnc(CN(C)C)n3C)cc2)C(=O)O[C@@H](Cc2ccccc2)C(=O)N2CCC[C@@](Cc3ccc(Cl)cc3)(C2)NC1=O.Cl [Compound 156, (3S,7S,10S,13R)-3-benzyl-6-(4-chloro-2-(4-(2-((dimethylamino)methyl)-1-methyl-1H-imidazol-5-yl)-phenoxy)benzyl)-13-(4-chlorobenzyl)-10-(methoxymethyl)-7-methyl-4-oxa-1,6,9,12-tetraazabicyclo[11.3.1]heptadecane-2,5,8,11-tetraone hydrochloride] | – | – | – | – | 38%
